Test results reported in patent US11236087B2, “Highly active pyrazolo-piperidine substituted indole-2-carboxamides active against the hepatitis B virus (HBV)” (AiCuris GmbH & Co. KG, priority 2017, dated 2022).
Where two headings read alike, the source gives them in different places.

Assays:
HBV = assay: Determination of HBV DNA from the supernatants of HepAD38 cells (anti-HBV activity); type: cell-based, hepatitis B virus; conditions: HBV DNA in HepAD38 supernatant, day 6, qPCR, read-out: Cell Activity (EC50)
Method in brief: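 HepAD38 cells, tetracycline withdrawn to induce HBV, treated with serial half-log compound dilutions; on day 6 HBV DNA purified from filtered supernatant and quantified by real-time PCR against HBV plasmid standards; EC50 from relative copy numbers by non-linear regression, three experiments in triplicate.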

HepAD38 cells = assay: Cell viability assay (AlamarBlue) in HepAD38 cells; conditions: HepAD38 cells with 0.3 μg/ml tetracycline, six days incubation, AlamarBlue
HBV core protein = target: T1, HBV core protein (UniProt P03146); assay: Biochemical capsid assembly assay (fluorescence quenching); parameters: species or system hepatitis B virus
T1 construct: fused on or other part: BODIPY-FL maleimide label on the C-terminal Cys150
T1 sequence (P03146 whole entry, looked up, the tested form may be a part): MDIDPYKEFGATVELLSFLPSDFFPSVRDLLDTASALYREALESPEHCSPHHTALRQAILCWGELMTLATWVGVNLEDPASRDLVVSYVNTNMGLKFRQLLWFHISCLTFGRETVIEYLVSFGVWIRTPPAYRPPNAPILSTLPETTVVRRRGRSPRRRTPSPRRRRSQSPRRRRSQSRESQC
Method in brief: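 Purified E. coli-expressed HBV core protein (aa 1-149 plus Cys150), BODIPY-FL maleimide-labelled, at 1.0-2.0 μM in 50 mM HEPES pH 7.5 with 0.5% DMSO was used. Compounds were tested at 8 concentrations (0.5-log dilutions from 100, 31.6 or 10 μM). Assembly was started with NaCl ([…]), and fluorescence quenching was read after 6 min (ex 477/em 525 nm). EC50 was determined by non-linear regression.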

[1] = Cell viability assay (AlamarBlue) in HepAD38 cells; conditions: human
[2] = BODIPY-FL labelled core protein, 300 μM NaCl, read 6 min after start; read-out: Assembly Activity (IC50)
[3] = read-out: Assembly Activity (IC50); BODIPY-FL labelled core protein, 300 μM NaCl, read 6 min after start

Molecule	EC50 (HBV) [µM]	CC50 (HepAD38 cells) [µM]	IC50 (HBV core protein; [2]) [µM]	EC50 (HBV; Hepatitis B virus, 144 h) [µM]	IC50 (HBV core protein; [3]) [µM]	CC50 at 6 days [1] [µM]
3-{1-[5-(1H-indole-2-carbonyl)-2H,4H,5H,6H,7H-pyrazolo[4,3-c]pyridin-3-yl]-N-methylformamido}-N-methanesulfonylpropanamide [Example 244]	< 100	> 10	–	–	–	–
5-(4-chloro-5-fluoro-1H-indole-2-carbonyl)-N-[1-(methoxymethyl)cyclopropyl]-N-methyl-1H,4H,5H,6H,7H-pyrazolo[4,3-c]pyridine-3-carboxamide [Example 268]	< 1	> 10	< 5	–	–	–
5-[4-(1,1-difluoroethyl)-1H-indole-2-carbonyl]-N-[1-(methoxymethyl)cyclopropyl]-N-methyl-1H,4H,5H,6H,7H-pyrazolo[4,3-c]pyridine-3-carboxamide [Example 301]	< 1	> 10	< 5	–	–	–
CN(C(=O)c1n[nH]c2c1CN(C(=O)c1cc3ccccc3[nH]1)CC2)C1(COCC(F)F)CC1 [Example 360, N-{1-[(2,2-difluoroethoxy)methyl]cyclopropyl}-5-(1H-indole-2-carbonyl)-N-methyl-1H,4H,5H,6H,7H-pyrazolo[4,3-c]pyridine-3-carboxamide]	–	–	–	< 1	< 5	> 10
CN(C(=O)c1n[nH]c2c1CN(C(=O)c1cc3ccccc3[nH]1)CC2)C1(CC#N)CC1 [Example 361, N-[1-(cyanomethyl)cyclopropyl]-5-(1H-indole-2-carbonyl)-N-methyl-1H,4H,5H,6H,7H-pyrazolo[4,3-c]pyridine-3-carboxamide]	–	–	–	1 to 25	< 5	> 10
CCOCC1(N(C)C(=O)c2[nH]nc3c2CN(C(=O)c2cc4c(F)cc(F)cc4[nH]2)CC3)CC1 [Example 363, 5-(4,6-difluoro-1H-indole-2-carbonyl)-N-[1-(ethoxymethyl)cyclopropyl]-N-methyl-2H,4H,5H,6H,7H-pyrazolo[4,3-c]pyridine-3-carboxamide]	–	–	–	< 1	< 5	> 10
CCOCC1(N(C)C(=O)c2[nH]nc3c2CN(C(=O)c2cc4c(Cl)c(F)ccc4[nH]2)CC3)CC1 [Example 364, 5-(4-chloro-5-fluoro-1H-indole-2-carbonyl)-N-[1-(ethoxymethyl)cyclopropyl]-N-methyl-2H,4H,5H,6H,7H-pyrazolo[4,3-c]pyridine-3-carboxamide]	–	–	–	< 1	< 5	> 10
CCOCC1(N(C)C(=O)c2[nH]nc3c2CN(C(=O)c2cc4c(Cl)cc(F)cc4[nH]2)CC3)CC1 [Example 365, 5-(4-chloro-6-fluoro-1H-indole-2-carbonyl)-N-[1-(ethoxymethyl)cyclopropyl]-N-methyl-2H,4H,5H,6H,7H-pyrazolo[4,3-c]pyridine-3-carboxamide]	–	–	–	< 1	< 5	> 10
CCOCC1(N(C)C(=O)c2[nH]nc3c2CN(C(=O)c2cc4c(C)cc(F)cc4[nH]2)CC3)CC1 [Example 366, N-[1-(ethoxymethyl)cyclopropyl]-5-(6-fluoro-4-methyl-1H-indole-2-carbonyl)-N-methyl-2H,4H,5H,6H,7H-pyrazolo[4,3-c]pyridine-3-carboxamide]	–	–	–	< 1	< 5	> 10
CCOCC1(N(C)C(=O)c2[nH]nc3c2CN(C(=O)c2cc4cccc(F)c4[nH]2)CC3)CC1 [Example 367, N-[1-(ethoxymethyl)cyclopropyl]-5-(7-fluoro-1H-indole-2-carbonyl)-N-methyl-2H,4H,5H,6H,7H-pyrazolo[4,3-c]pyridine-3-carboxamide]	–	–	–	< 1	< 5	> 10
CN(C(=O)c1[nH]nc2c1CN(C(=O)c1cc3ccccc3[nH]1)CC2)C1(c2cocn2)CC1 [Example 368, 5-(1H-indole-2-carbonyl)-N-methyl-N-[1-(1,3-oxazol-4-yl)cyclopropyl]-2H,4H,5H,6H,7H-pyrazolo[4,3-c]pyridine-3-carboxamide]	–	–	–	< 1	< 5	> 10
N-(2,3-dihydroxypropyl)-5-(1H-indole-2-carbonyl)-N-methyl-2H,4H,5H,6H,7H-pyrazolo[4,3-c]pyridine-3-carboxamide [Example 253]	1 to 25	> 10	5 to 10	–	–	–
N-[1-(methoxymethyl)cyclopropyl]-N-methyl-5-(4-methyl-1H-indole-2-carbonyl)-1H,4H,5H,6H,7H-pyrazolo[4,3-c]pyridine-3-carboxamide [Example 260]	< 1	> 10	< 5	–	–	–
N-ethyl-5-(1H-indole-2-carbonyl)-N-(2-methoxyethyl)-1H,4H,5H,6H,7H-pyrazolo[4,3-c]pyridine-3-carboxamide [Example 294]	< 1	> 10	5 to 10	–	–	–
tert-butyl N-(2-{1-[5-(1H-indole-2-carbonyl)-2H,4H,5H,6H,7H-pyrazolo[4,3-c]pyridin-3-yl]-N-methylformamido}ethyl)carbamate [Example 281]	1 to 25	> 10	< 100	–	–	–
